Results on 17 compounds are retold here after patent publication US20170121315A1, “HETEROBICYCLICALLY SUBSTITUTED 4-OXOBUTANE ACID DERIVATIVES AND USE THEREOF” (priority 2014, published 2017).

Some results are limits rather than exact numbers.

Format in all cases: biochemical
The target of test [1] is T1, MMP-3 (Homo sapiens, UniProt P08254).
T1 construct: purchased R&D Systems 513-MP
Description: In vitro MMP-3 inhibition test. The note with it: human MMP-3. From the text:
(§1) The MMP-mediated amidolytic cleavage of a suitable peptide substrate leads to an increase in fluorescent light here too. The signal intensity of the fluorescent light is directly proportional to the enzyme activity. The active concentration of a test compound at which half the enzyme is inhibited (50% signal intensity of the fluorescent light) is reported as the IC50 value.
(§2) Recombinant MMP-3 (R&D Systems, 513-MP) is chemically activated in accordance with the manufacturer's instructions using APMA. 1 μl of the test compound to be analysed (as a solution in DMSO, suitable concentrations e.g. 1 nM to 30 μM) is pipetted into 24 μl of activated enzyme (final concentration e.g. 2 nM) in reaction buffer (50 mM Tris/HCl pH 7.5, 10 mM CaCl2, 150 mM NaCl, 0.05% Brij®-35) in a white 384-hole microtiter plate (MTP). The enzymatic reaction is started by adding the intramolecularly quenched Mca-Arg-Pro-Lys-Pro-Val-Glu-Nval-Trp-Arg-Lys(Dnp)-NH2 substrate (final concentration e.g. 10 μM; R&D Systems, ES-002), so as to result in a total test volume of 50 μl. The course of the MMP-3 reaction is measured by measuring the fluorescence intensity (excitation 320 nm, emission 410 nm) over a suitable period of time (e.g. over 120 min at a temperature of 32° C.).

Test [2] has as its target T2, MMP-14 (Homo sapiens, UniProt P50281).
T2 construct: purchased R&D Systems 918-MP
Put plainly: In vitro MMP-14 inhibition test. The note with it: human MMP-14.
Text: as §1
Recombinant MMP-14 (R&D Systems, 918-MP) is enzymatically activated in accordance with the manufacturer's instructions using recombinant furin (R&D Systems, 1503-SE). 1 μl of the test compound to be analysed (as a solution in DMSO, suitable concentrations e.g. 1 nM to 30 μM) is pipetted into 24 μl of activated enzyme (final concentration e.g. 0.5 nM) in reaction buffer (50 mM Tris/HCl pH 7.5, 10 mM CaCl2, 150 mM NaCl, 0.05% Brij®-35) in a white 384-hole microtiter plate (MTP). The enzymatic reaction is started by adding the intramolecularly quenched Mca-Lys-Pro-Leu-Gly-Leu-Dpa(Dnp)-Ala-Arg-NH2 substrate (final concentration e.g. 5 μM; R&D Systems, ES-010), so as to result in a total test volume of 50 μl. The course of the MMP-14 reaction is measured by measuring the fluorescence intensity (excitation 320 nm, emission 410 nm) over a suitable period of time (e.g. over 120 min at a temperature of 32° C.).

For test [3], the target named is T3, MMP-8 (Homo sapiens, UniProt P22894).
T3 construct: purchased R&D Systems 908-MP
Put plainly: In vitro MMP-8 inhibition test. The settings on record: human MMP-8.
Text: as §1
as §2, with “Recombinant MMP-8” for “Recombinant MMP-3”, “Systems, 908-MP)” for “Systems, 513-MP)”, “e.g. 0.5” for “e.g. 2”, “quenched Mca-Pro-Leu-Gly-Leu-Dpa(Dnp)-Ala-Arg-NH2” for “quenched Mca-Arg-Pro-Lys-Pro-Val-Glu-Nval-Trp-Arg-Lys(Dnp)-NH2”, “Systems, ES-001),” for “Systems, ES-002),”, “the MMP-8” for “the MMP-3”

T1 sequence (P08254 100-477): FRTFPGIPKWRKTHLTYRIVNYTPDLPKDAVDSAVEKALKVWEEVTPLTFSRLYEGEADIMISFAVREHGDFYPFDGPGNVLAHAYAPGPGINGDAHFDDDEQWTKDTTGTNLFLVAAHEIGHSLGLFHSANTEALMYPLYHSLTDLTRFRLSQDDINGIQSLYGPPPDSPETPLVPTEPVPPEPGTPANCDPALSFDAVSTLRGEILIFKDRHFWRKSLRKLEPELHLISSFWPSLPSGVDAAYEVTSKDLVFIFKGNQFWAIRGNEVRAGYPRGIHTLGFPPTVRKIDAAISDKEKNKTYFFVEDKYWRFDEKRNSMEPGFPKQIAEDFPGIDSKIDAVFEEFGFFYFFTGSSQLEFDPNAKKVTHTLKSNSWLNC
T3 sequence (P22894 101-467): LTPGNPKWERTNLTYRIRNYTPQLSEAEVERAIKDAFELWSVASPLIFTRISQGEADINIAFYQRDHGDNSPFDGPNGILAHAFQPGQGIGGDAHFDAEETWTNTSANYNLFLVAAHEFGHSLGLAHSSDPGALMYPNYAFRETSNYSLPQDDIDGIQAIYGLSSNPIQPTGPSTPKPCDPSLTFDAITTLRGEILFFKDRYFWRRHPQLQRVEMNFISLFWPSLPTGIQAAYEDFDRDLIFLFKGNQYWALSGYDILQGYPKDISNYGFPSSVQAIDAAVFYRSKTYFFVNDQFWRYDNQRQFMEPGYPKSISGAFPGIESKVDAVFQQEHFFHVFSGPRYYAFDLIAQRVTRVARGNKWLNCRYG

Consider `O=C(CC(CCn1nnc2ccccc2c1=O)C(=O)O)c1coc2cc(OCCC3CCOCC3)ccc12` (racemic) [Example 74, (+/−)-4-Oxo-2-[2-(4-oxo-1,2,3-benzotriazin-3(4H)-yl)ethyl]-4-{6-[2-(tetrahydro-2H-pyran-4-yl)ethoxy]-1-benzofur-3-yl}butanoic acid], for which the results for the IC50 in test [1], in test [2] and in test [3] were 16 µM, 1.4 µM and 0.37 µM, respectively.
As for `O=C(CC(CCn1nnc2ccccc2c1=O)C(=O)O)c1noc2cc(OCC3CCCCC3)ccc12` (racemic) [Example 153, (+/−)-4-[6-(Cyclohexylmethoxy)-1,2-benzoxazol-3-yl]-4-oxo-2-[2-(4-oxo-1,2,3-benzotriazin-3(4H)-yl)ethyl]butanoic acid], the IC50 in test [1] was 12 µM; in test [2], 5.5 µM; in test [3], 1.7 µM.
Turning to `O=C(CC(CCn1nnc2ccccc2c1=O)C(=O)O)c1cc2cc(OCCc3ccc(Cl)cc3)ccc2o1` (racemic) [Example 2, (+/−)-4-{5-[2-(4-Chlorophenyl)ethoxy]-1-benzofur-2-yl}-4-oxo-2-[2-(4-oxo-1,2,3-benzotriazin-3(4H)-yl)ethyl]butanoic acid], the IC50 was 25 µM in test [1], greater than 40 µM in test [2] and 14 µM in test [3].
As for `O=C(CC(CCn1nnc2ccccc2c1=O)C(=O)O)c1cc2cc(OCc3ccc(C(F)(F)F)cc3)ccc2o1` (racemic) [Example 44, (+/−)-4-Oxo-2-[2-(4-oxo-1,2,3-benzotriazin-3(4H)-yl)ethyl]-4-(5-{[4-(trifluoromethyl)benzyl]oxy}-1-benzofur-2-yl)butanoic acid], the IC50 came out at 23 µM in test [1], 13 µM in test [2] and 28 µM in test [3].
With `O=C(CC(CCn1nnc2ccccc2c1=O)C(=O)O)c1cc2cc(OCC3CCCCC3)ccc2o1` (racemic) [Example 8, (+/−)-4-[5-(Cyclohexylmethoxy)-1-benzofur-2-yl]-4-oxo-2-[2-(4-oxo-1,2,3-benzotriazin-3(4H)-yl)ethyl]butanoic acid], the IC50 in test [1] is greater than 40 µM; in test [2], greater than 40 µM; in test [3], 30 µM.
As to `CCCCCCCOc1ccc2c(C(=O)CC(CCn3nnc4ccccc4c3=O)C(=O)O)coc2c1` (racemic) [Example 101, (+/−)-4-[6-(Heptyloxy)-1-benzofur-3-yl]-4-oxo-2-[2-(4-oxo-1,2,3-benzotriazin-3(4H)-yl)ethyl]butanoic acid], the IC50 is greater than 40 µM in test [1], greater than 40 µM in test [2] and 12 µM in test [3].
For the compound `CCCCCOc1ccc2c(C(=O)CC(CCn3nnc4ccccc4c3=O)C(=O)O)coc2c1` (single isomer, unassigned) [Example 91, 4-Oxo-2-[2-(4-oxo-1,2,3-benzotriazin-3(4H)-yl)ethyl]-4-[6-(pentyloxy)-1-benzofur-3-yl]butanoic acid], the IC50 in test [1] was found to be 17 µM; in test [2] it was 4 µM; in test [3], 0.94 µM.
`O=C(CC(CCn1nnc2ccccc2c1=O)C(=O)O)c1cc2ccc(OCC3CC3)cc2s1` (racemic) [Example 111, (+/−)-4-[6-(Cyclopropylmethoxy)-1-benzothiophen-2-yl]-4-oxo-2-[2-(4-oxo-1,2,3-benzotriazin-3(4H)-yl)ethyl]butanoic acid]: the IC50 in test [1] came to 9.7 µM; in test [2], 6 µM; in test [3], 0.46 µM.
In the case of `O=C(CC(CCn1nnc2ccccc2c1=O)C(=O)O)c1cc2cc(OCc3ccc(F)cc3)ccc2o1` (single isomer, unassigned; (+)) [Example 23, (+)-4-{5-[(4-Fluorobenzyl)oxy]-1-benzofur-2-yl}-4-oxo-2-[2-(4-oxo-1,2,3-benzotriazin-3(4H)-yl)ethyl]butanoic acid], the IC50 was greater than 40 µM in test [1], 15 µM in test [2] and 6.3 µM in test [3].
`O=C(CC(CCn1nnc2ccccc2c1=O)C(=O)O)c1cc2ccc(OCCCC3CCCCC3)cc2o1` (racemic) [Example 71, (+/−)-4-[6-(3-Cyclohexylpropoxy)-1-benzofur-2-yl]-4-oxo-2-[2-(4-oxo-1,2,3-benzotriazin-3(4H)-yl)ethyl]butanoic acid]: the IC50 in test [1], in test [2] and in test [3] was greater than 40 µM each time.
With `O=C(CC(CCn1nnc2ccccc2c1=O)C(=O)O)c1cc2ccc(OCCc3ccccc3)cc2s1` (racemic) [Example 114, (+/−)-4-Oxo-2-[2-(4-oxo-1,2,3-benzotriazin-3(4H)-yl)ethyl]-4-[6-(2-phenylethoxy)-1-benzothiophen-2-yl]butanoic acid], the IC50 in test [1] is 3.2 µM; in test [2], 2.1 µM; in test [3], 3.2 µM.
Consider `CCCCCCCOc1ccc2cc(C(=O)CC(CCn3nnc4ccccc4c3=O)C(=O)O)oc2c1` (single isomer, unassigned; (+)) [Example 69, (+)-4-[6-(Heptyloxy)-1-benzofur-2-yl]-4-oxo-2-[2-(4-oxo-1,2,3-benzotriazin-3(4H)-yl)ethyl]butanoic acid acid], for which the IC50 was 36 µM in test [1], greater than 40 µM in test [2] and greater than 40 µM in test [3].
In the case of `O=C(CC(CCn1nnc2ccccc2c1=O)C(=O)O)c1cc2cc(OCc3cccc(Cl)c3)ccc2o1` (racemic) [Example 50, (+/−)-4-{5-[(3-Chlorobenzyl)oxy]-1-benzofur-2-yl}-4-oxo-2-[2-(4-oxo-1,2,3-benzotriazin-3(4H)-yl)ethyl]butanoic acid], the IC50 in test [1] is 34 µM; in test [2], greater than 40 µM; in test [3], 36 µM.
On to `O=C(CC(CCn1nnc2ccccc2c1=O)C(=O)O)c1cc2cc(OCCc3ccccc3)ccc2o1` (single isomer, unassigned; (+)) [Example 21, (+)-4-Oxo-2-[2-(4-oxo-1,2,3-benzotriazin-3(4H)-yl)ethyl]-4-[5-(2-phenylethoxy)-1-benzofur-2-yl]butanoic acid], for which the IC50 in test [1] amounted to 22 µM; in test [2], 30 µM; in test [3], 14 µM.
In the case of `CCCOc1ccc2cc(C(=O)CC(CCn3nnc4ccccc4c3=O)C(=O)O)oc2c1` (racemic) [Example 58, (+/−)-4-Oxo-2-[2-(4-oxo-1,2,3-benzotriazin-3(4H)-yl)ethyl]-4-(6-propoxy-1-benzofur-2-yl)butanoic acid], the IC50 in test [1] is greater than 40 µM; in test [2], 2.2 µM; in test [3], 10 µM.
For `CCCCCCOc1ccc2c(C(=O)CC(CCn3nnc4ccccc4c3=O)C(=O)O)coc2c1` (single isomer, unassigned; (+)) [Example 100, (+)-4-[6-(Hexyloxy)-1-benzofur-3-yl]-4-oxo-2-[2-(4-oxo-1,2,3-benzotriazin-3(4H)-yl)ethyl]butanoic acid] the same measures were greater than 40 µM, 4 µM and 2.8 µM.
Consider `O=C(O)[C@H]1[C@H](Cn2nnc3ccc(C(F)(F)F)cc3c2=O)CC[C@@H]1C(=O)c1cc2cc(OCCc3ccccc3)ccc2o1` (racemic) [Example 157, (+/−)-(1RS,2SR,5RS)-2-{[4-Oxo-6-(trifluoromethyl)-1,2,3-benzotriazin-3(4H)-yl]methyl}-5-{[5-(2-phenylethoxy)-1-benzofur-2-yl]carbonyl}cyclopentanecarboxylic acid (racemate)], for which the IC50 came out at 1.1 µM in test [1], 0.7 µM in test [2] and 0.15 µM in test [3].

By IC50 is commonly meant the midpoint of a concentration-inhibition curve. A higher IC50 goes with weaker potency.
